Holding throughout (type): functional
Test [1] concerns Enterococcus faecium. Put plainly: Tested in vitro for its antibacterial activity against vancomycin sensitive Enterococcus faecium (RLA1).
The test system of test [2] is Staphylococcus aureus. Put plainly: Tested in vitro for its antibacterial activity against methicillin resistant Staphylococcus aureus (MH76).
Test [3] deals with Enterococcus faecium. Kind of test: Tested in vitro for its antibacterial activity against vancomycin resistant Enterococcus faecium (CL4931).
For test [4], the system named is Staphylococcus aureus. Kind of test: In vitro antibacterial activity against vancomycin intermediate resistant Staphylococcus aureus (CL5706).
Test [5] deals with Staphylococcus aureus. Kind of test: Tested in vitro for its antibacterial activity against methicillin sensitive Staphylococcus aureus (MB2985).
Test [6] concerns Staphylococcus aureus. Put plainly: Tested in vitro for its antibacterial activity against methicillin resistant Staphylococcus aureus (COL).
Test [7] has as its system Enterococcus faecalis. Kind of test: Tested in vitro for its antibacterial activity against vancomycin sensitive Enterococcus faecalis (MB2864).
The subject of test [8] is Staphylococcus aureus. Put plainly: In vitro antibacterial activity against vancomycin intermediate resistant Staphylococcus aureus (CL5705).
In test [9] the test system is Enterococcus faecium. Kind of test: Tested in vitro for its antibacterial activity against vancomycin resistant Enterococcus faecium (MB5244).
Test [10] has as its system Enterococcus faecalis. Put plainly: Tested in vitro for its antibacterial activity against vancomycin resistant Enterococcus faecalis (MB4877).
The test system of test [11] is Staphylococcus aureus. Kind of test: Tested in vitro for its antibacterial activity against methicillin resistant Staphylococcus aureus (Mh76).

In brackets after ≈: the same amount, converted by molar mass. Some results are limits rather than exact numbers.

In general, MIC refers to the lowest concentration found to suppress growth. A higher MIC goes with a need for much substance.

As to `CN[C@H](CC(C)C)C(=O)N[C@H]1C(=O)N[C@@H](CC(N)=O)C(=O)N[C@H]2C(=O)N[C@H]3C(=O)N[C@H](C(=O)N[C@H](C(=O)O)c4cc(O)cc(O)c4-c4cc3ccc4O)[C@H](O)c3ccc(c(Cl)c3)Oc3cc2cc(c3OC2OC(C[N+](C)(C)Cc3ccccc3)C(O)C(O)C2OC2CC(C)(NCc3ccc(OCc4ccc(Cl)c(Cl)c4)cc3)C(O)C(C)O2)Oc2ccc(cc2Cl)[C@H]1O` (some centres undefined), the MIC in [1] was 0.25 µg/mL; in test [2] it was 0.25 µg/mL; in test [3] it was greater than 64 µg/mL; in [4], 1 µg/mL; in test [5], 0.25 µg/mL; in [6] it was 0.5 µg/mL. The MIC in test [7] is 2 µg/mL; in test [8], 1 µg/mL; in test [9], 1 µg/mL; in test [10] it was 16 µg/mL.
`CN[C@H](CC(C)C)C(=O)N[C@H]1C(=O)N[C@@H](CC(N)=O)C(=O)N[C@H]2C(=O)N[C@H]3C(=O)N[C@H](C(=O)N[C@H](C(=O)O)c4cc(O)cc(O)c4-c4cc3ccc4O)[C@H](O)c3ccc(c(Cl)c3)Oc3cc2cc(c3OC2OC(CN(C)C)C(O)C(O)C2OC2CC(C)(NCc3ccc(OCc4ccc(Cl)c(Cl)c4)cc3)C(O)C(C)O2)Oc2ccc(cc2Cl)[C@H]1O` (some centres undefined): the MIC was no more than 0.03 µg/mL in [1]; 0.25 µg/mL (≈ 0.144 µM) in [2]; 32 µg/mL (≈ 18.4 µM) in test [3]; 0.5 µg/mL (≈ 0.287 µM) in [4]; no more than 0.03 µg/mL in test [5]; 0.5 µg/mL (≈ 0.287 µM) in [6]. The MIC in [7] came out at 1 µg/mL (≈ 0.574 µM); in [8], 1 µg/mL (≈ 0.574 µM); in test [9], 1 µg/mL (≈ 0.574 µM); in test [10], 16 µg/mL (≈ 9.19 µM).
Take `CN[C@H](CC(C)C)C(=O)N[C@H]1C(=O)N[C@@H](CC(N)=O)C(=O)N[C@H]2C(=O)N[C@H]3C(=O)N[C@H](C(=O)N[C@H](C(=O)O)c4cc(O)cc(O)c4-c4cc3ccc4O)[C@H](O)c3ccc(c(Cl)c3)Oc3cc2cc(c3OC2OC(C[N+]34CCN(CC3)CC4)C(O)C(O)C2OC2CC(C)(NCc3ccc(OCc4ccc(Cl)c(Cl)c4)cc3)C(O)C(C)O2)Oc2ccc(cc2Cl)[C@H]1O` (some centres undefined): the MIC in test [1] was 0.5 µg/mL; in [2], 1 µg/mL; in [3], greater than 32 µg/mL; in test [4] it was 2 µg/mL; in test [5] it was 1 µg/mL; in test [6], 1 µg/mL. The MIC in test [7] is 2 µg/mL; in test [8], 2 µg/mL; in test [9], 1 µg/mL; in test [10], 8 µg/mL.
Turning to `CN[C@H](CC(C)C)C(=O)N[C@H]1C(=O)N[C@@H](CC(N)=O)C(=O)N[C@H]2C(=O)N[C@H]3C(=O)N[C@H](C(=O)N[C@H](C(=O)O)c4cc(O)cc(O)c4-c4cc3ccc4O)[C@H](O)c3ccc(c(Cl)c3)Oc3cc2cc(c3OC2OC(C[N+](C)(C)C)C(O)C(O)C2OC2CC(C)(NCc3ccc(OCc4ccc(Cl)c(Cl)c4)cc3)C(O)C(C)O2)Oc2ccc(cc2Cl)[C@H]1O` (some centres undefined), the MIC in test [1] was 0.5 µg/mL; in test [2] it was 0.5 µg/mL; in test [3] it was greater than 64 µg/mL; in [4], 2 µg/mL; in [5] it was 0.5 µg/mL; in test [6], 0.5 µg/mL. For the same compound, the MIC in test [7] stood at 1 µg/mL; in test [8], 2 µg/mL; in test [9] it was 1 µg/mL; in test [10], 16 µg/mL.
Turning to `CN[C@H](CC(C)C)C(=O)N[C@H]1C(=O)N[C@@H](CC(N)=O)C(=O)N[C@H]2C(=O)N[C@H]3C(=O)N[C@H](C(=O)N[C@H](C(=O)O)c4cc(O)cc(O)c4-c4cc3ccc4O)[C@H](O)c3ccc(c(Cl)c3)Oc3cc2cc(c3OC2OC(C[N+](C)(C)CCN(C)C)C(O)C(O)C2OC2CC(C)(NCc3ccc(OCc4ccc(Cl)c(Cl)c4)cc3)C(O)C(C)O2)Oc2ccc(cc2Cl)[C@H]1O` (some centres undefined), the MIC in test [1] was 1 µg/mL; in [3], greater than 64 µg/mL; in test [4], 4 µg/mL; in test [11], 2 µg/mL; in test [5] it was 2 µg/mL; in test [6], 2 µg/mL. Further, the MIC in [7] was 4 µg/mL; in [8], 2 µg/mL; in test [9], 8 µg/mL; in test [10], greater than 64 µg/mL.
Take `CNCC1OC(Oc2c3cc4cc2Oc2ccc(cc2Cl)[C@@H](O)[C@@H](NC(=O)[C@@H](CC(C)C)NC)C(=O)N[C@@H](CC(N)=O)C(=O)N[C@H]4C(=O)N[C@H]2C(=O)N[C@H](C(=O)N[C@H](C(=O)O)c4cc(O)cc(O)c4-c4cc2ccc4O)[C@H](O)c2ccc(c(Cl)c2)O3)C(OC2CC(C)(NCc3ccc(OCc4ccc(Cl)c(Cl)c4)cc3)C(O)C(C)O2)C(O)C1O` (some centres undefined): the MIC in test [1] is 0.03 µg/mL (≈ 0.0174 µM); in test [2] it was 0.12 µg/mL (≈ 0.0695 µM); in [3], 32 µg/mL (≈ 18.5 µM); in test [4] it was 0.25 µg/mL (≈ 0.145 µM); in test [5], no more than 0.03 µg/mL; in test [6] it was 0.12 µg/mL (≈ 0.0695 µM). The MIC in test [7] turned out to be 0.25 µg/mL (≈ 0.145 µM); in [8], 1 µg/mL (≈ 0.579 µM); in [9], 1 µg/mL (≈ 0.579 µM); in test [10], 4 µg/mL (≈ 2.32 µM).
Turning to `CN[C@H](CC(C)C)C(=O)N[C@H]1C(=O)N[C@@H](CC(N)=O)C(=O)N[C@H]2C(=O)N[C@H]3C(=O)N[C@H](C(=O)N[C@H](C(=O)O)c4cc(O)cc(O)c4-c4cc3ccc4O)[C@H](O)c3ccc(c(Cl)c3)Oc3cc2cc(c3OC2OC(C[N+](C)(C)CCO)C(O)C(O)C2OC2CC(C)(NCc3ccc(OCc4ccc(Cl)c(Cl)c4)cc3)C(O)C(C)O2)Oc2ccc(cc2Cl)[C@H]1O` (some centres undefined), the MIC was 0.5 µg/mL in test [1]; 1 µg/mL in test [2]; greater than 64 µg/mL in test [3]; 2 µg/mL in test [4]; 2 µg/mL in [5]; 1 µg/mL in [6]. Besides, the MIC in test [7] came to 2 µg/mL; in test [8], 2 µg/mL; in test [9], 4 µg/mL; in test [10] it was 8 µg/mL.
For the compound `CN[C@H](CC(C)C)C(=O)N[C@H]1C(=O)N[C@@H](CC(N)=O)C(=O)N[C@H]2C(=O)N[C@H]3C(=O)N[C@H](C(=O)N[C@H](C(=O)O)c4cc(O)cc(O)c4-c4cc3ccc4O)[C@H](O)c3ccc(c(Cl)c3)Oc3cc2cc(c3O[C@@H]2O[C@H](CO)[C@@H](O)[C@H](O)[C@H]2O[C@H]2C[C@](C)(N)[C@H](O)[C@H](C)O2)Oc2ccc(cc2Cl)[C@H]1O` [VANCOMYCIN], the MIC amounted to 2050 µg/mL (≈ 1410 µM) in [3], 8 µg/mL (≈ 5.52 µM) in test [4], 16 µg/mL (≈ 11 µM) in test [9] and 2050 µg/mL (≈ 1410 µM) in test [10].

The values above are taken from ChEMBL document CHEMBL1136062 (2002).
